ChEMBL document CHEMBL5465560, “Selectivity Literature for EUbOPEN Chemogenomic Library” (2024)

What was measured:
[1] = molecular target: T1, Atypical kinase COQ8B, mitochondrial (Homo sapiens) (UniProt Q96D53); test: Selectivity interaction (KinomeScan (DiscoverX)) EUB0000666a ADCK4; details: at 10 µM
T1 sequence (whole entry): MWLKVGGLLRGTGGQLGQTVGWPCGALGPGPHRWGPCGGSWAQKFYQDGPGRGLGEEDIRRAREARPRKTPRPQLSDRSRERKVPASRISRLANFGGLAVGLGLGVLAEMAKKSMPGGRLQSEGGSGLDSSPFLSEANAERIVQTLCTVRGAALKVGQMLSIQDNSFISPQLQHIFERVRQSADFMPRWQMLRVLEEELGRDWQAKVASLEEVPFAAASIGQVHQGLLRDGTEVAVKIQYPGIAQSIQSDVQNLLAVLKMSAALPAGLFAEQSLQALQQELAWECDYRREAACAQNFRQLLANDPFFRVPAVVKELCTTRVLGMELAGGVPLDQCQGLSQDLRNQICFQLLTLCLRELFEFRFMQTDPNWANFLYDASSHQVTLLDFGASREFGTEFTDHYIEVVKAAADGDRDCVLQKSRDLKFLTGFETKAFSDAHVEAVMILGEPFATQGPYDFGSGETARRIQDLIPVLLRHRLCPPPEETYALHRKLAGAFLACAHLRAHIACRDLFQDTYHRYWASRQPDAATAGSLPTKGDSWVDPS

[2] = molecular target: Calcium/calmodulin-dependent protein kinase kinase 1 (Homo sapiens) (UniProt Q8N5S9); test: Selectivity interaction (KinomeScan (DiscoverX)) EUB0000229b CAMKK1; details: at 10 µM
Sequence of Calcium/calmodulin-dependent protein kinase kinase 1 (Homo sapiens) (Q8N5S9 whole entry, looked up): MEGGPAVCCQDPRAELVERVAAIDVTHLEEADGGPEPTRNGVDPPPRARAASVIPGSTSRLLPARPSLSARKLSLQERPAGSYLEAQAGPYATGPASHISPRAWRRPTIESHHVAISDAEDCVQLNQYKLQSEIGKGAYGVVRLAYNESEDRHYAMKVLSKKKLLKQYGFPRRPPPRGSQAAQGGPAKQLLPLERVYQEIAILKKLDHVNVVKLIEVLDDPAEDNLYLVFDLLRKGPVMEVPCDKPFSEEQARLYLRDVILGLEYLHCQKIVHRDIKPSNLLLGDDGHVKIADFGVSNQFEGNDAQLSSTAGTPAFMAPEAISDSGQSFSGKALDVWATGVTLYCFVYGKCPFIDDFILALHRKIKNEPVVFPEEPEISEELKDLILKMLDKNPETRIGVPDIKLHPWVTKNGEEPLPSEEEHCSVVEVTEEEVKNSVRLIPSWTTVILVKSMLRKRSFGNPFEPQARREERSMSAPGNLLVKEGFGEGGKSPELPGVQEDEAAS

[3] = molecular target: Small conductance calcium-activated potassium channel protein 1 (Homo sapiens) (UniProt Q92952); test: Selectivity interaction (Eurofins CEREP Diversity Profile (receptors and ion channels)) EUB0000279b KCNN1; details: at 10 µM
Sequence of Small conductance calcium-activated potassium channel protein 1 (Homo sapiens) (Q92952 whole entry): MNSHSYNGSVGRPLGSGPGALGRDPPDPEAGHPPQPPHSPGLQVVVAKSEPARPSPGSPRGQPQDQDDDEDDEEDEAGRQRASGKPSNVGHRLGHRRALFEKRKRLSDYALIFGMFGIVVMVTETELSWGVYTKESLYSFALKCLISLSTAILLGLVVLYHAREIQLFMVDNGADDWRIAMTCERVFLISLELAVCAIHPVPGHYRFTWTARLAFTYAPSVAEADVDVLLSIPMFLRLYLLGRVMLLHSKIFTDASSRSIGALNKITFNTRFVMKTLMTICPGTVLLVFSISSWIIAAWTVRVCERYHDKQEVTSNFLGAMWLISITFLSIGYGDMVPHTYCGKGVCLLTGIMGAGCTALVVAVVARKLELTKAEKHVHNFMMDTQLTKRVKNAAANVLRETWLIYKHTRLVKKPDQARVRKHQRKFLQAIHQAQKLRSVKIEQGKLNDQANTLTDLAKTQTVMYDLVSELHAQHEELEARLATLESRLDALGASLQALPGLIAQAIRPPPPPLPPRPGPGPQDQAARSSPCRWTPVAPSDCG

Aurora kinase B = Aurora kinase B (Homo sapiens, UniProt Q96GD4); test: Selectivity interaction (Kinase panel (KiNativ target engagement assay in Jurkat cells)) EUB0001635a AURKB; format: cell-based; details: Selectivity number of off-targets 0.0, Selectivity number of targets 233.0, Source Knowledge https://www.sciencedirect.com/science/article/pii/S2451945619300674?via%3Dihub, at 1 µM
Sequence of Aurora kinase B (Q96GD4 whole entry): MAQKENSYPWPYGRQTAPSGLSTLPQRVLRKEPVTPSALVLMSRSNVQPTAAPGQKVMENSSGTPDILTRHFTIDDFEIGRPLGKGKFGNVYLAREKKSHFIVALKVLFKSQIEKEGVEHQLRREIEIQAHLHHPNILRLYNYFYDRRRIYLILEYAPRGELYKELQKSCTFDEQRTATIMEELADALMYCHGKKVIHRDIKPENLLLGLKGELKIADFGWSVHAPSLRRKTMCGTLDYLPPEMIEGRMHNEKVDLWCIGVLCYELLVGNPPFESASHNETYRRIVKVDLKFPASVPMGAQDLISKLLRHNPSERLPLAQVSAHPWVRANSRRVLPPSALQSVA

[4] = molecular target: Hepatocyte growth factor-like protein (Homo sapiens) (UniProt P26927); test: Selectivity interaction (Kinase panel (Eurofins)) EUB0001564a MST1; details: at 1 µM
[5] = molecular target: Non-receptor tyrosine-protein kinase TYK2 (Homo sapiens, UniProt P29597); test: Selectivity interaction (ActivX KiNativ screen (kinase selectivity in THP-1 cell lysates)) EUB0000639a TYK2; format: subcellular; details: lysate, at 0.2 µM
Sequence of Non-receptor tyrosine-protein kinase TYK2 (P29597 whole entry): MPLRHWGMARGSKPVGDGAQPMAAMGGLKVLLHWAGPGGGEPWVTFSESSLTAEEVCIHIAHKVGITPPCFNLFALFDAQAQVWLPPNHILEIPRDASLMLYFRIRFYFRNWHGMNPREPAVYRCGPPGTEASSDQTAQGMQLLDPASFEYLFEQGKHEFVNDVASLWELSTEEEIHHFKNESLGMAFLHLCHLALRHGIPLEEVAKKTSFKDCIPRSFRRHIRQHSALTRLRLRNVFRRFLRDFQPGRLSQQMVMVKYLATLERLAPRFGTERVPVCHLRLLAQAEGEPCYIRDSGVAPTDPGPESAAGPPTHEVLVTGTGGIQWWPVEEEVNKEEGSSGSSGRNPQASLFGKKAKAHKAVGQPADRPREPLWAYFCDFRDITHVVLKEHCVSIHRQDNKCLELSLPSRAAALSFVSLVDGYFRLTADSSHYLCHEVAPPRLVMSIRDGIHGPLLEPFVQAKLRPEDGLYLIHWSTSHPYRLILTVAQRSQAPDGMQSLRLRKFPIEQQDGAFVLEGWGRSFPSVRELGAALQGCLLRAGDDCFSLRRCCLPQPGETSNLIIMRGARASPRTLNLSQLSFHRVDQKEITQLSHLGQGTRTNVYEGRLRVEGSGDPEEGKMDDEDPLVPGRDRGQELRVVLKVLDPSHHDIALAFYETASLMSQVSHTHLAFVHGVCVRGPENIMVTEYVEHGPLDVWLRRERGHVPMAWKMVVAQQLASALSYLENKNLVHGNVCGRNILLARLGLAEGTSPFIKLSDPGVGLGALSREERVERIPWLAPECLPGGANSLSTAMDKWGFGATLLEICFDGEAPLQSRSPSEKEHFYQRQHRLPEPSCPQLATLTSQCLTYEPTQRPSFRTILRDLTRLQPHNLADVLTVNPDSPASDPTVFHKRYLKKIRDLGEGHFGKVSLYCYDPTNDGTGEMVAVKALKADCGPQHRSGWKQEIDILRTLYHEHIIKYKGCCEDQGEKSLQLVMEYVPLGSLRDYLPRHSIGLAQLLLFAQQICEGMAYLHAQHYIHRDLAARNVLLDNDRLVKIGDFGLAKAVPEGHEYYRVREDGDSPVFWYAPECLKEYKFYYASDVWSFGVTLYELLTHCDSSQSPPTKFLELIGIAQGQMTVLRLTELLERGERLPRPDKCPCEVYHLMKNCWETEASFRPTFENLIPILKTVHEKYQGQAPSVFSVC

[6] = molecular target: Tyrosine-protein kinase JAK1 (Homo sapiens, UniProt P23458); test: Selectivity interaction (KinomeScan (DiscoverX)) EUB0000092b JAK1; details: at 10 µM
Sequence of Tyrosine-protein kinase JAK1 (P23458 whole entry): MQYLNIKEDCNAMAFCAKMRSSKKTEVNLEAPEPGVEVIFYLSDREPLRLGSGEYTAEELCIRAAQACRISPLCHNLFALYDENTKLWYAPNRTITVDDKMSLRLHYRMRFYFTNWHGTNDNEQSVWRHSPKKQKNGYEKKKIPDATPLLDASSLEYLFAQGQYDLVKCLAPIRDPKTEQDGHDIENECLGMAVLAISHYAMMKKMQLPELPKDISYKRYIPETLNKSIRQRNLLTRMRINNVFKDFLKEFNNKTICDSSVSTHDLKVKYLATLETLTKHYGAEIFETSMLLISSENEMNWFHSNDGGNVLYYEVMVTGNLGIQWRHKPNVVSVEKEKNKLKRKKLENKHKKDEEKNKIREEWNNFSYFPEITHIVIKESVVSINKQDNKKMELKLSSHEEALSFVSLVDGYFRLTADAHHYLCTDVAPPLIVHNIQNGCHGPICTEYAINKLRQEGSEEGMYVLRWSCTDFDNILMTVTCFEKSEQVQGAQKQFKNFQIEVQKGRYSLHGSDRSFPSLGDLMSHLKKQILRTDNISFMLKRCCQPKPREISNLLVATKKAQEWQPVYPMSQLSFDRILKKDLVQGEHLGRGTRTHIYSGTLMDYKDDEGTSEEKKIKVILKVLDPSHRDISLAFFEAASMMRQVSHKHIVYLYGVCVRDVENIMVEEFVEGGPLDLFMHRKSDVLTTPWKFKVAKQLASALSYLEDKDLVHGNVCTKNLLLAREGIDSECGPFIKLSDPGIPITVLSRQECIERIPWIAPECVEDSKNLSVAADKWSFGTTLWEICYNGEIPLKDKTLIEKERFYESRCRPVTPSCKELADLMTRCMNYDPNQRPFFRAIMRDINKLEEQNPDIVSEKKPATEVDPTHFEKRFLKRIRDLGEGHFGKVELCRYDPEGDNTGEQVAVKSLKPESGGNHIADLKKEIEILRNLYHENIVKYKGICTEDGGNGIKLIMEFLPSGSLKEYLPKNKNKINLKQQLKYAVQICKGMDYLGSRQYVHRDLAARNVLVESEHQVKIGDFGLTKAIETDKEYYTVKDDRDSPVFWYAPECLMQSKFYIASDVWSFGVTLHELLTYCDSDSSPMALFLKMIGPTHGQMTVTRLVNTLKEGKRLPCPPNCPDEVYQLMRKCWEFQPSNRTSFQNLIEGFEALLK

[7] = molecular target: Protein kinase C delta type (Homo sapiens) (UniProt Q05655); test: Selectivity interaction (KinomeScan (DiscoverX)) EUB0000092b PRKCD; details: at 10 µM
Sequence of Protein kinase C delta type (Homo sapiens) (Q05655 whole entry, looked up): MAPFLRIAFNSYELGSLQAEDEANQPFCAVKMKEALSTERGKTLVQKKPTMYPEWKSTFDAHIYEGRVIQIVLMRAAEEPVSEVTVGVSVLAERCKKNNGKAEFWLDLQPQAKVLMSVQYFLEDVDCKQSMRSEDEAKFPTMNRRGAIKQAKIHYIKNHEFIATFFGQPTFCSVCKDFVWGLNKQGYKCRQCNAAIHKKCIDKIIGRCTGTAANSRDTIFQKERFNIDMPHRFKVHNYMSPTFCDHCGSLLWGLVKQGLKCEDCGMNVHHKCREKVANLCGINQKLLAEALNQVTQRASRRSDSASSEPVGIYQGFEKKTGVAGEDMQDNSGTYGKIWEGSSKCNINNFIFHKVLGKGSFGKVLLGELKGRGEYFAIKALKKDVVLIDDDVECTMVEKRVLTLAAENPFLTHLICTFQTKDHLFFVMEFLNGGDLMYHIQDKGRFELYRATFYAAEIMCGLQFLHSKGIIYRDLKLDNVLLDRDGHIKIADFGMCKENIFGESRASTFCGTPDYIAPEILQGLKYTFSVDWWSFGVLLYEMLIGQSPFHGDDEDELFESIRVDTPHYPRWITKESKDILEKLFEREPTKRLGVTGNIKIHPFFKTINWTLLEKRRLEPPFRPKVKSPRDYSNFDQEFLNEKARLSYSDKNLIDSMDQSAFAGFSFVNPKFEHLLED

[8] = molecular target: T2, Mitogen-activated protein kinase 15 (Homo sapiens) (UniProt Q8TD08); test: Selectivity interaction (KinomeScan (DiscoverX)) EUB0000045b MAPK15
T2 sequence (whole entry): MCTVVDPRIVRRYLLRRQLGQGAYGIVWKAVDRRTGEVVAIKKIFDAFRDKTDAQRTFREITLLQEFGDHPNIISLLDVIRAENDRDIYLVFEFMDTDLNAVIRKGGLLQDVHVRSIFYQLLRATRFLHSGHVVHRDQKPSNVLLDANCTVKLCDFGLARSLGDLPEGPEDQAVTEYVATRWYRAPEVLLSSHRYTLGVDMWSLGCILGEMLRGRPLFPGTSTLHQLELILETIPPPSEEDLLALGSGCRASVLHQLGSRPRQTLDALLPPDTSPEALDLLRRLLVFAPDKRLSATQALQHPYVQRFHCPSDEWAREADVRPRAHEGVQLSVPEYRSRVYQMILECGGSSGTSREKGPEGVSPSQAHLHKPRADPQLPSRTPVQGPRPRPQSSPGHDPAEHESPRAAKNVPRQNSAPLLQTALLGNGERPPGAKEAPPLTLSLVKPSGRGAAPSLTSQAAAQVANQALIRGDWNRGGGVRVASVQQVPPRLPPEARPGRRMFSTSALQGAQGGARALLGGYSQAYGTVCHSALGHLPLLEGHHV

[9] = molecular target: Dual specificity testis-specific protein kinase 1 (Homo sapiens) (UniProt Q15569); test: Selectivity interaction (KinomeScan (DiscoverX)) EUB0000618a TESK1; details: at 10 µM
Sequence of Dual specificity testis-specific protein kinase 1 (Homo sapiens) (Q15569 whole entry, looked up): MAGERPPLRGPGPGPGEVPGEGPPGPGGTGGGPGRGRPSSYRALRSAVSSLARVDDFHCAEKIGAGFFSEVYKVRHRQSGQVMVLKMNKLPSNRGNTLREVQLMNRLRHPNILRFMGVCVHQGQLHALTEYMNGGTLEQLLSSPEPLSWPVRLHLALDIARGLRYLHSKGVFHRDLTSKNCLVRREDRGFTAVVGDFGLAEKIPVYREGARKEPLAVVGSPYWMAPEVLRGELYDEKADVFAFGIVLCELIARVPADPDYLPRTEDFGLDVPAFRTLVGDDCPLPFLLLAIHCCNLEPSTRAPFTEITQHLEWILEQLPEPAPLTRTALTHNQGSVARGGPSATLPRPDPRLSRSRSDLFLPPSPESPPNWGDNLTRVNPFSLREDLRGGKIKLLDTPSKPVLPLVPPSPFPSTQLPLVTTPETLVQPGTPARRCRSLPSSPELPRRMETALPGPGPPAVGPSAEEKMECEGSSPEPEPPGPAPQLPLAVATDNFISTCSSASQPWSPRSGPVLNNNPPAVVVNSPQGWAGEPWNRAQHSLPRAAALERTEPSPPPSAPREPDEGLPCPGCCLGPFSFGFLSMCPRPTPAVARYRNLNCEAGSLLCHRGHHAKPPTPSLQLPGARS

[10] = molecular target: T3, Dual specificity mitogen-activated protein kinase kinase 7 (Homo sapiens) (UniProt O14733); details: at 10 µM
T3 sequence (whole entry): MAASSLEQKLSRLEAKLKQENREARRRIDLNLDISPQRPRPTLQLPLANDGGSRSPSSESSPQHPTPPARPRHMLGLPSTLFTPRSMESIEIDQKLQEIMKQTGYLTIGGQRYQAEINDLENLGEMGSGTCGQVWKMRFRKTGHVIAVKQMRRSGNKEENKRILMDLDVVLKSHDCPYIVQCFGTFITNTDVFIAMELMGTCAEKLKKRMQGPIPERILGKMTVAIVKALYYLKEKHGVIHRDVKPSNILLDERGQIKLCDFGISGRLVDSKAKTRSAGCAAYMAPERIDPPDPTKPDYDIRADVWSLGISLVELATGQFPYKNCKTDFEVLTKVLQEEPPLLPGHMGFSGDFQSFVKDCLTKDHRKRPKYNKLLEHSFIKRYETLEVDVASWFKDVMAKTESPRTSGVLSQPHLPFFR

[11] = molecular target: Angiopoietin-1 receptor (Homo sapiens) (UniProt Q02763); test: Selectivity interaction (KinomeScan (DiscoverX)) EUB0001619a TEK; details: at 1 µM
[12] = molecular target: T4, Phosphorylase b kinase gamma catalytic chain, liver/testis isoform (Homo sapiens) (UniProt P15735); test: Selectivity interaction (KinomeScan (DiscoverX)) EUB0000607a PHKG2; details: at 10 µM
T4 sequence (whole entry): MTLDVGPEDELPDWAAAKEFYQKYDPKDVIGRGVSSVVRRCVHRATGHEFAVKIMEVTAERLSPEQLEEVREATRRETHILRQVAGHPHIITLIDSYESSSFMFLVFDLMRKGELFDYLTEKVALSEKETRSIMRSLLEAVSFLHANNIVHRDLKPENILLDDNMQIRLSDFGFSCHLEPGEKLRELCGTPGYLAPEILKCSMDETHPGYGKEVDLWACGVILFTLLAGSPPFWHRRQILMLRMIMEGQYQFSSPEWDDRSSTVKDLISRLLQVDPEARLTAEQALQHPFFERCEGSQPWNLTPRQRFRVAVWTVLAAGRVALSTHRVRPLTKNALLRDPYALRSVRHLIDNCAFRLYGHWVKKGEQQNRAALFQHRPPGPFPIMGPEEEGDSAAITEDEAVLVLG

How did the % of control [1] turn out when `O=C(NOC[C@H](O)CO)c1ccc(F)c(F)c1Nc1ccc(I)cc1F` was run?
Its % of control is 100%.

For `COc1cc(N(C)c2ccnc3ccc(C(F)(F)F)cc23)cc(OC)c1OC`, which % binding [2] is on record?
The % binding was 97%.

How did the % of control [3] turn out when `CC(=O)c1cc(-c2ccccc2OCC2CC2)c2ncccn12` was run?
The % of control was 110%.

With `C=CC(=O)Nc1ccc(C(=O)Nc2[nH]nc3c2CN(C(=O)N[C@H](CN(C)C)c2ccccc2)C3(C)C)cc1` as the molecule, how does the % of engagement (Aurora kinase B) read?
Its % of engagement is 23%.

Which % of inhibition [4] does the source give for `CC[C@@H](Nc1c(C#N)c(-c2ccc(-c3cccc(C)c3F)cc2)nc2cnccc12)C(=O)O` [BAY-091] here?
The % of inhibition was 20.6%.

`CC[C@@H]1[C@H](F)C(=O)N[C@@H]1COc1nccc2cc(C(N)=O)c(OC)cc12` [ZIMLOVISERTIB] was tested. Which % of inhibition [5] did it give?
The % of inhibition was 14%.

With `CCC(=O)N1CCN(c2ccc(-n3c(=O)ccc4cnc5ccc(-c6cnc7ccccc7c6)cc5c43)cc2C(F)(F)F)CC1` as the molecule, how does the % of control [6] read?
The % of control was 82%.

What about the % of control [7] of the same molecule?
The % of control was 82%.

Which results are given for `C=CC(=O)Nc1cc(-n2c(=O)ccc3cnc4ccc(-c5ccc(NS(C)(=O)=O)cc5)cc4c32)ccc1C`?
% of control ([8]; at 1 µM): 100%; % of control ([8]; at 10 µM): 100%

Which % of control [9] does the source give for `O[C@H]1CC[C@H](Nc2ncc3nc(Nc4c(F)cc(F)cc4F)n([C@H]4CCOC4)c3n2)CC1` here?
Its % of control is 78%.

For `Cc1cc([C@@H](C)Nc2ccccc2C(=O)O)c2nc(N3CCOCC3)cc(=O)n2c1` [AZD-6482], which % of control [10] is on record?
Its % of control is 90%.

Which % of control [11] does the source give for `N#Cc1cccc(-c2c[nH]c3ncnc(N4CCOCC4)c23)c1` here?
The % of control was 100%.

For `CNC(=O)Nc1ccc(-c2nc(N3CC4CCC(C3)O4)c3cnn(C4CCC5(CC4)OCCO5)c3n2)cc1`, which % of control [12] is on record?
The % of control was 96%.
